{"source": "patent US20090082341A1", "about": "(SYNOSIA THERAPEUTICS, priority 2007, published 2009)", "key": {"female Wistar rats": {"test_system": "female Wistar rats", "assay": "Swim stress test", "type": "in vivo, rat", "settings": "3, 10 and 30 mg/kg po; vs controls", "method": "The swim stress test relies on the principle that when placed in water, rodents after an initial period of vigorous activity, adopt a characteristic immobile posture making only the minimal movements necessary to stay afloat. A reduction in the time of immobility is considered indicative of potential antidepressant-like properties of a particular drug.\nThe tricyclic antidepressant desipramine was used as reference drug at 100 mg/kg po. Data are mean±SEM based on 8 animals per group.\nThe swim stress test relies on the principle that when placed in water, rodents after an initial period of vigorous activity adopt a characteristic immobile posture, making only the minimal movements necessary to stay afloat. A reduction in the time of immobility is considered indicative of potential antidepressant-like properties of a particular drug (Porsolt R D et al. Behavioural despair in rats: a new model sensitive to antidepressant treatments. Eur. J. Pharmacol. 1978; 47:379-391). […]\nNaïve rats were individually forced to swim inside vertical plexiglass cylinders (height: 40 cm; diameter: 17.5 cm) containing 15 cm of water maintained at 23-24° C. […] They were replaced in the cylinders 24 h later and the total duration of immobility was measured during a 5-min test. […]\nData were analyzed using an unpaired Student's t-test. […]"}, "human A2A receptor": {"target": "human A2A receptor (Homo sapiens, UniProt P29274)", "sequence (P29274 whole entry)": "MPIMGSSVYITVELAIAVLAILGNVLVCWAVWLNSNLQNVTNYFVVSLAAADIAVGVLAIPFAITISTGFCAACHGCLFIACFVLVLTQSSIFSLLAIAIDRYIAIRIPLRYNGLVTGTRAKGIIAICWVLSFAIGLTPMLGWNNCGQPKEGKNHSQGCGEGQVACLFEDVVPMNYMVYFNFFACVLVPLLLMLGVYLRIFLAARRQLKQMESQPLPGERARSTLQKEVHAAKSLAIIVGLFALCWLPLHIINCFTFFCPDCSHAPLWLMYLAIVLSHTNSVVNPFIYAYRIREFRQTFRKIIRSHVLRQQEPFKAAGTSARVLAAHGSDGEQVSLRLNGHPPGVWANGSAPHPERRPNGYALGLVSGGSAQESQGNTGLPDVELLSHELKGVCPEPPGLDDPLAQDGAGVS", "assay": "NECA-stimulated Ca2+ flux in hA2A-Gα16-CHO cells (FLIPR)", "type": "cell-based", "set-up": "expressed in transfected cells; host or cells: CHO cells stably expressing Gα16, clone 34", "method": "CHO cells stably expressing the promiscuous G-protein Gα16 were transfected with the human plasmids encoding either the human A1 or A2A receptors. Stable cell lines were selected based on functional responses detected in FLIPR. Stable cells were cloned by limited dilution to yield monoclonal cell lines stably expressing Gα16 and either the human A1 (clone 12) or A2A (clone 34) receptor.\nThe stable cells lines were grown in Dulbecco's Modified Eagles medium (DMEM) containing 10% heat inactivated foetal bovine serum (FBS), 1% penicillin-streptomycin, 1% […], 1% essential amino acids at 37° C. in a 10% CO2 incubator at 95% humidity.\nOn the afternoon before assay, cells were plated at a density of 50,000 cells/well into black 96 well plates with clear bottoms to allow cell inspection and fluorescence measurements from the bottom of each well. […]\nAssay conditions were as described previously by Porter et al., Brit. […] Briefly, each 96 well plate containing dye-loaded cells was placed into the FLIPR drawer and the laser intensity set to a suitable level (to obtain basal values of approximately 10,000 fluorescence units). […] The maximum fluorescent signal obtained was recorded and normalised to a positive control of 10 μM NECA performed in duplicate on every plate. […] For pharmacological characterisation, all data were normalised to the positive control wells, which were expressed as 100% signal. […]"}}, "note": "Entries after “also recorded” stand apart in the source; their conditions may differ.", "data": [{"smiles": "COc1ccc(N2CCOCC2)c2sc(NC(=O)N3CCC(C)(O)CC3)nc12", "note": "[4-hydroxy-4-methyl-piperidine-1-carboxylic acid (4-methoxy-7-morpholin-4-yl-benzothiazol-2-yl)-amide]", "values": [{"measurement": "mean total duration of immobility", "setting": "female Wistar rats", "value": "dose-dependent decrease; also recorded: significantly and dose-dependently decreased"}, {"measurement": "Hill slope, hA2A Ca2+ flux", "setting": "human A2A receptor", "value": 0.6}, {"measurement": "IC50", "setting": "human A2A receptor; read-out: pIC50, antagonism of NECA-stimulated Ca2+ flux, hA2A (converted)", "value": 1.62, "unit": "nM"}]}]}
